From article PMC7393355, “A FRET-based screening method to detect potential inhibitors of the binding of CNNM3 to PRL2” (Scientific Reports, 2020) come the findings set out here.

The subject of experiment [1] is binding of CNNM3-YPet and CyPet-PRL2 (CNNM3-PRL2 complex). In words: FRET-based inhibition test of the binding of CNNM3-YPet and CyPet-PRL2. The arrangement: species or system human. The settings on record: CNNM3-YPet 200 nM, CyPet-PRL2 200 nM, n = 6. As to the method: FRET measurements were conducted in TBS (50 mM Tris–HCl (pH 8.0) and 150 mM NaCl). Proteins were mixed in 96-well plates and incubated at R.T. for 1 h. Fluorescence intensities were measured using an excitation wavelength of 435 nm and an emission wavelength of 530 nm with a Cytation 3 (BioTek).
The emission spectra were measured with each component at 200 nM using the Cytation 3 (BioTek) with 435 nm excitation (Supplementary Fig. 2), and the original data are shown in Supplementary Table 1. The FRET intensity was calculated by Eq. (1).1 IFRET=IA-raw-Dleakage-Adirect where IA-raw is the intensity measured at 530 nm with 435 nm excitation, Dleakage is the leakage of the donor emission into the acceptor wavelength (530 nm) upon donor excitation, and Adirect is the direct excitation of the acceptor with the donor wavelength (435 nm).
The inhibition of complex formation was assayed by pre-incubating the binding partner (200 nM) with inhibitory factors (1, 10 μM) for 20 min at R.T., followed by addition of the other protein (200 nM) (Figs. 3B, 4C). The effects of divalent cations (10 mM) and nucleotides (3 mM) were also assayed similarly (Fig. 5).
The peptides for the peptide inhibition test were synthesized by Shanghai Dechi Biosciences (Fig. 6C,D). The peptide sequences were as follows: peptide 1, IVQKVNNEGEGDPFYEVLG; peptide 2, […] (an S–S bond was formed between the cysteine residues, as verified by HPLC and mass spectrometry). The peptides were dissolved in TBS buffer at 10 mM before use.
FRET data were evaluated by subtracting backgrounds (fluorescence intensities of CyPet-PRL2, CNNM3-YPet and a blank well). All data analysis was performed using GraphPad Prism 6 (GraphPad Software) with the methods described in each legend.

In experiment [2] the test system is PRL2. In words: Isothermal titration calorimetry (ITC) with PRL2. The experiment is classed as binding, human. The settings on record: 25 °C, cell 20 μM PRL2, syringe 200 μM ligand, 20 mM Tris-HCl pH 7.0, 50 mM NaCl, 1 mM TCEP, 2% DMSO, repeated twice. As to the method: ITC experiments were performed by ITC200 (GE Healthcare, USA). PRL2 and CNNM3 CBS domain proteins were purified in Buffer A (20 mM Tris–HCl (pH 7.0), 50 mM NaCl, and 1 mM TCEP). JMS-053 (Aobious, USA) was dissolved in 100% DMSO at 10 mM, further diluted to 200 μM with Buffer A. The ITC cell was thermally equilibrated at 25 °C and then filled with 250 μl of 20 μM PRL2, while the syringe was filled with 40 μl of 200 μM JMS-053 or CNNM3 CBS protein. In the case of JMS-053, 2% DMSO at a final concentration was added into PRL2 protein solution. Data were analysed by Microcal Origin software.

In the case of `Nc1ncnc2c1ncn2[C@@H]1O[C@H](COP(=O)(O)OP(=O)(O)O)[C@@H](O)[C@H]1O` [ADP, reference compound], in experiment [1] (3 mM nucleotide), the “alteration of FRET intensity by nucleotide” value stood at 9.6%. On to `N=C1C(=O)NC(=O)c2cc(-c3ccccc3)sc21` [JMS-053, reference compound], for which the “interaction with PRL2 by ITC (in words)” value in experiment [2] was “no interaction”. Besides, the “effect on the interaction between CNNM3 and PRL2 (in words)” value in experiment [1] was “no effect”. `[Mg+2]` [Mg^2+]: in experiment [1] (10 mM divalent cation), the “effect of divalent cation on FRET intensity (in words)” value is reported as “no effect on the FRET intensity”. `[Zn+2]` [Zn^2+]: in experiment [1] (10 mM divalent cation), the “decrease of FRET intensity by divalent cation” value was 90.3%. For the compound “IVQKVNNEGEGDPFYEVLG [peptide 1, shorter synthesized peptide derived from the CNNM CBS loop]”, the “effect of peptide on complex formation (in words)” value in experiment [1] (peptide 100 μM) is on record as “failed to interrupt complex formation”.

“LAICQRVNNEGEGDPFYEVCGIVT (an S–S bond was formed between the cysteine residues (disulfide) [peptide 2, longer CNNM CBS loop peptide with two residues mutated to cysteine to form an S–S bond]”: the “inhibition of complex formation” value in experiment [1] (peptide 100 μM) was 20%; in experiment [1] (peptide 500 μM) it was 50%.
